Among the data in ChEMBL document CHEMBL1156182 (Bioorg Med Chem Lett, 2010) are EC50 and Activity values, retold here.

The source made the active and inactive calls. The rule behind the calls is not given here.

In general, EC50 refers to the concentration at which the effect is half-maximal.

Test [1] deals with T1, Peroxisome proliferator-activated receptor gamma (Homo sapiens, UniProt P37231).
T1 sequence (P37231 whole entry): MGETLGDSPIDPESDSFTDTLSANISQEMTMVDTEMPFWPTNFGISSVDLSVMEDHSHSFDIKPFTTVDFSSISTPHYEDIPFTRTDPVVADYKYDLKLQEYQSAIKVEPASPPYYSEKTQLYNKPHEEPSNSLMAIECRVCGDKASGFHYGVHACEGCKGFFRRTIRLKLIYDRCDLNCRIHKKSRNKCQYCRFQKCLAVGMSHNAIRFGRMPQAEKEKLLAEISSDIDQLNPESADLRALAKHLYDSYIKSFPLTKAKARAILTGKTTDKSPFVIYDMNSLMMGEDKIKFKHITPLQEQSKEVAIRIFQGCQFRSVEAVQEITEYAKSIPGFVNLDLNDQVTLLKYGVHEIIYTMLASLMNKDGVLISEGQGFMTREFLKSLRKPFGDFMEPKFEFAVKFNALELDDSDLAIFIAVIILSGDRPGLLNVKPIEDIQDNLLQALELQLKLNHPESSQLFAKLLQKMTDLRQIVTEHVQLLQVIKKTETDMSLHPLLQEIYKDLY

Test [2] has as its target T2, Peroxisome proliferator-activated receptor alpha (Homo sapiens) (UniProt Q07869).
T2 sequence (whole entry): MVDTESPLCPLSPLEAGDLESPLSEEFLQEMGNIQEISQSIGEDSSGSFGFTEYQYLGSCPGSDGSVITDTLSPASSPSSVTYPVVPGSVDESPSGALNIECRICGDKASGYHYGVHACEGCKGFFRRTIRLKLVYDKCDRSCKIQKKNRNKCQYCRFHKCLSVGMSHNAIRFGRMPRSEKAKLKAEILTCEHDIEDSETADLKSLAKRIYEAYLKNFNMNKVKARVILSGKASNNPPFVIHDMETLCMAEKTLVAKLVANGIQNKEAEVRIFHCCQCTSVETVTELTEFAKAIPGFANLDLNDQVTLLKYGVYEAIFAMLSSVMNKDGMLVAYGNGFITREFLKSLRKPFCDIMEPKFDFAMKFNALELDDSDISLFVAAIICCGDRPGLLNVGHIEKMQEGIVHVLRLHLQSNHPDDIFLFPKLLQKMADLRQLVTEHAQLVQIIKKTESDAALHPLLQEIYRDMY
Put plainly: Transactivation of human PPARalpha LBD expressed in african green monkey Cos7 cells co-transfected with fused GAL4-DBD at 10 uM after 14 hrs by Dual-Glo Luciferase reporter gene assay. The test is classed as cell-based. As to conditions: COS-7.

Test [3] deals with T3, Peroxisome proliferator-activated receptor gamma (Homo sapiens) (UniProt P37231).
T3 sequence (whole entry): T1 sequence (P37231 whole entry)
Put plainly: Transactivation of human PPARgamma LBD expressed in african green monkey Cos7 cells co-transfected with fused GAL4-DBD after 14 hrs by Dual-Glo Luciferase reporter gene assay. To be noted: COS-7. Background: A reporter such as luciferase makes a cellular process visible.

Test [4] addresses T3, Peroxisome proliferator-activated receptor gamma (Homo sapiens). Briefly: Transactivation of human PPARgamma LBD expressed in african green monkey Cos7 cells co-transfected with fused GAL4-DBD at 10 uM after 14 hrs by Dual-Glo Luciferase reporter gene assay. It counts as cell-based. To be noted: COS-7.
Test [5] has the same target. Put plainly: Agonist activity at human PPARgamma LBD expressed in african green monkey Cos7 cells co-transfected with fused GAL4-DBD after 14 hrs by Dual-Glo Luciferase reporter gene transactivation assay. It counts as functional, cell-based. To be noted: COS-7.

`O=C(O)C(Sc1nc(Cl)cc(Nc2cccc(Cl)c2)n1)c1cccc2ccccc12` (stereo not given): the EC50 in test [1] worked out at 7.3 µM. For the same molecule, the outcome in test [2] was inactive.
As for `CCCCNc1cc(Cl)nc(SC(C(=O)O)c2cccc3ccccc23)n1` (stereo not given), the outcome in test [3], in test [2] and in test [4] was inactive.
Take `Cc1cccc(Nc2cc(Cl)nc(SC(C(=O)O)c3cccc4ccccc34)n2)c1C` (stereo not given): the outcome in test [5] and in test [2] was inactive. This molecule also displayed an EC50 in test [1] of 6.2 µM.
`O=C(O)C(Sc1nc(Cl)cc(Nc2ccc3ccccc3c2)n1)c1cccc2ccccc12` (stereo not given): in test [1], it took 6.9 µM to reach a half-maximal effect (EC50). Besides, in test [2], the outcome was inactive.
`Cc1cccc(Nc2cc(Cl)nc(SC(C(=O)O)c3ccc(-c4ccccc4)c4ccccc34)n2)c1C` (stereo not given): in test [1], the EC50 worked out at 4.5 µM. Also, the result in test [2] was inactive.
Turning to `O=C(O)C(Sc1nc(Cl)cc(Nc2ccc3c(c2)CCC3)n1)c1cccc2ccccc12` (stereo not given), the EC50 in test [1] worked out at 6.8 µM. In addition, the result in test [2] was inactive.
In test [1], `O=C(O)C(Sc1nc(Cl)cc(Nc2ccc(Cl)cc2)n1)c1cccc2ccccc12` (stereo not given) displayed an EC50 of 9 µM. Also, the outcome in test [2] was inactive.
As to `O=C(O)C(Sc1nc(Cl)cc(NCCCc2ccccc2)n1)c1cccc2ccccc12` (stereo not given), the EC50 in test [1] came out at 8.9 µM. In addition, the outcome in test [2] was inactive.
`CC(C)CCNc1cc(Cl)nc(SC(C(=O)O)c2cccc3ccccc23)n1` (stereo not given) gave an EC50 in test [1] of 8.9 µM. In test [2], the outcome was inactive.
The molecule `Cc1ccc(Nc2cc(Cl)nc(SC(C(=O)O)c3cccc4ccccc34)n2)cc1C` (stereo not given) registered an EC50 in test [1] of 7.8 µM. Besides, the result in test [2] was inactive.
The matching figures for `CC(C)c1ccc(Nc2cc(Cl)nc(SC(C(=O)O)c3cccc4ccccc34)n2)cc1` (stereo not given): 7.6 µM and “inactive”.
With `O=C(O)C(Sc1nc(Cl)cc(Nc2ccc(F)cc2)n1)c1cccc2ccccc12` (stereo not given), in test [1], a half-maximal response (EC50) required 13 µM. Further, in test [2], the outcome was inactive.
`O=C(O)C(Sc1nc(Cl)cc(NCCc2ccccc2)n1)c1cccc2ccccc12` (stereo not given) had a 50% effective concentration (EC50) in test [1] of 10.8 µM. Also, the result in test [2] was inactive.
Regarding `CCCCCCC(Sc1nc(Cl)cc(Nc2cccc(C)c2C)n1)C(=O)O` (stereo not given), the EC50 in test [1] stood at 3.6 µM.
Turning to `CCc1ccc(CCOc2ccc(CC3SC(=O)NC3=O)cc2)nc1` (stereo not given), in test [2], the outcome was inactive.
